Tested on: CHD (fatal CHD, definite non-fatal MI, or revascularization)
Test: CARE: SNP by pravastatin treatment interaction, logistic regression (synergy index), CHD endpoint
Format: in vivo, human
Text: CARE was a secondary prevention trial and WOSCOPS was a primary prevention trial.
The CHD endpoint was defined in the analyses herein of CARE as a composite endpoint of fatal CHD, definite non-fatal MI, or revascularization, and was defined in the analyses herein of WOSCOPS as a composite endpoint of death from CHD, nonfatal MI, or revascularization. In both the CARE and WOSCOPS analyses herein, the CVD endpoint was defined as a composite endpoint of CHD or stroke. […] Revascularization, which can include percutaneous transluminal coronary angioplasty (PTCA), stent placement, and coronary artery bypass graft (CABG), are medical interventions that indicate the presence of CHD.
Cohort and case-only study designs were used to identify SNPs associated with response to statin treatment.
For each SNP, a logistic regression model having treatment status as the dependent variable and SNP as the independent predictor variable was performed, with terms for age, sex and race included in the model as covariates. The anti-log of the regression coefficient corresponding to the SNP is an estimate of the synergy index (SI) (Davis et al., “Imputing gene-treatment interactions when the genotype distribution is unknown using case-only and putative placebo analyses-a new method for the Genetics of Hypertension Associated Treatment (GenHAT) study”, Statistics in Medicine 23: (2004), pages 2413-2427). The SI is a ratio of odds ratios: for example in the CARE and WOSCOPS studies, the SI represents the factor by which the odds-ratio of statin treatment, compared with placebo, among major homozygous individuals is multiplied by in order to obtain the odds-ratio of treatment vs. placebo among heterozygous individuals; and multiplied by a second time to obtain the odds-ratio of treatment vs. placebo in minor homozygous individuals. The case-only study design results in a valid estimate of the SI under the assumption that genotype and treatment are independent in the population. In a randomized clinical trial, genotype and treatment are independent by design. The p-value for the regression coefficient corresponding to the SNP results from a test of the null hypothesis that the regression coefficient is equal to zero (SI is equal to one) and thus small p-values indicate the SI is unlikely equal to one and that the effect of treatment likely differs by genotype.
A case-only study design was used to test whether the reduction of CHD events by statin therapy (for CARE and WOSCOPS studies) differed according to genotype (a treatment by SNP interaction) for each SNP evaluated in the study.

CC[C@H](C)C(=O)O[C@H]1C[C@H](O)C=C2C=C[C@H](C)[C@H](CC[C@@H](O)C[C@@H](O)CC(=O)O)[C@H]21 [Pravastatin, pravastatin]
CARE OR (rs3732788 allele G vs A (ref), Source cohort): 0.56 | CARE OR (rs3798544 allele A vs G (ref), Source cohort): 1.47 | CARE OR (rs3998860 allele A vs G (ref), Source cohort): 0.58 | CARE OR (rs4289236 allele A vs G (ref), Source cohort): 1.37 | CARE OR (rs4611134 allele A vs G (ref), Source cohort): 1.54 | CARE OR (rs4643388 allele G vs A (ref), Source cohort): 1.32 | CARE OR (rs4682522 allele C vs A (ref), Source cohort): 0.59 | CARE OR (rs4830819 allele G vs A (ref), Source cohort): 0.57 | CARE OR (rs4869033 allele G vs A (ref), Source cohort): 0.31 | CARE OR (rs4924215 allele A vs G (ref), Source cohort): 1.77 | CARE OR (rs4986146 allele A vs G (ref), Source cohort): 0.62 | CARE OR (rs4993917 allele A vs C (ref), Source cohort): 0.57 | CARE OR (rs5017584 allele A vs G (ref), Source cohort): 1.61 | CARE OR (rs6075209 allele A vs G (ref), Source cohort): 0.63 | CARE OR (rs6080603 allele A vs C (ref), Source cohort): 0.59 | CARE OR (rs6491586 allele G vs A (ref), Source cohort): 1.59 | CARE OR (rs6505669 allele G vs A (ref), Source cohort): 1.70 | CARE OR (rs6911817, allele A1 A (non-ref), A2 G (ref), source cohort, endpoint/model not given): 2.15 | CARE OR (rs7094941, allele A1 G (non-ref), A2 A (ref), source cohort, endpoint/model not given): 0.78 | CARE OR (rs7179134 allele A vs G (ref), Source cohort): 3.54 | CARE OR (rs7193741 allele A vs C (ref), Source cohort): 2.16 | CARE OR (rs7327364 allele A vs G (ref), Source cohort): 0.69 | CARE OR (rs7497613, allele A1 A (non-ref), A2 G (ref), source cohort, endpoint/model not given): 0.65 | CARE OR (rs7616936, allele A1 C (non-ref), A2 A (ref), source cohort, endpoint/model not given): 1.47 | CARE OR (rs7705993 allele G vs A (ref), Source cohort): 1.50 | CARE OR (rs7767024, allele A1 A (non-ref), A2 G (ref), source cohort, endpoint/model not given): 1.32 | CARE OR (rs7910196, allele A1 G (non-ref), A2 A (ref), source cohort, endpoint/model not given): 1.36 | CARE OR (rs8051893 allele A vs G (ref), Source cohort): 0.69 | CARE OR (rs8109631 allele A vs G (ref), Source cohort): 1.53 | CARE OR (rs9375683 allele G vs A (ref), Source cohort): 1.63 | CARE OR (rs9436636 allele A vs G (ref), Source cohort): 1.34 | CARE OR (rs9446187 allele A vs G (ref), Source cohort): 1.92 | CARE OR (rs9658127, allele A1 A (non-ref), A2 G (ref), source cohort, endpoint/model not given): 2.03 | CARE OR (rs10088505 allele A vs G (ref), Source Caseonly): 1.52 | CARE OR (rs10088524, allele A1 G (non-ref), A2 A (ref), source cohort, endpoint/model not given): 1.46 | CARE OR (rs10103297, allele A1 A (non-ref), A2 G (ref), source cohort, endpoint/model not given): 1.84 | CARE OR (rs10120126 allele G vs A (ref), Source CaseOnly): 0.53 | CARE OR (rs10189905 allele C vs A (ref), Source cohort): 0.50 | CARE OR (rs10500736 allele G vs A (ref), Source cohort): 0.61 | CARE OR (rs10517923 allele A vs G (ref), Source cohort): 1.62 | CARE OR (rs10814422 allele G vs A (ref), Source cohort): 0.64 | CARE OR (rs10849442 allele A vs G (ref), Source Caseonly): 0.56 | CARE OR (rs10875941, allele A1 G (non-ref), A2 A (ref), source cohort, endpoint/model not given): 0.73 | CARE OR (rs10973013 allele A vs G (ref), Source cohort): 0.59 | CARE OR (rs11076320 allele C vs A (ref), Source cohort): 0.64 | CARE OR (rs11082492 allele A vs C (ref), Source cohort): 1.46 | CARE OR (rs11925875 allele A vs G (ref), Source cohort): 0.72 | CARE OR (rs12556591 allele G vs A (ref), Source cohort): 0.57 | CARE OR (rs12657484, allele A1 G (non-ref), A2 A (ref), source cohort, endpoint/model not given): 1.36 | CARE OR (rs13279522 allele G vs A (ref), Source cohort): 0.62 | CARE OR (rs13314266 allele G vs A (ref), Source cohort): 0.60 | CARE OR (rs13318232 allele G vs A (ref), Source cohort): 0.60 | CARE OR (rs16861467, allele A1 G (non-ref), A2 A (ref), source cohort, endpoint/model not given): 0.60 | CARE OR (rs17076974 allele A vs G (ref), Source cohort): 1.46 | CARE OR (rs17546598 allele A vs G (ref), Source cohort): 1.57 | CARE OR (rs17706237 allele G vs A (ref), Source CaseOnly): 1.80 | CARE OR (rs17716275, allele A1 A (non-ref), A2 G (ref), source cohort, endpoint/model not given): 1.91 | CARE OR (rs72746987 allele A vs G (ref), Source cohort): 0.43

From US10563263B2, “Genetic polymorphisms associated with statin response and cardiovascular diseases, methods of detection and uses thereof” (CELERA CORPORATION, priority 2010, dated 2020)
